Laboratory results published in publication PMC3561959 (Nucleic Acids Research, 2012).

Experiments:
[1] = target: DBD-F^MBP (Homo sapiens, UniProt P27694); type: binding; settings: competitive titration, fluorescence anisotropy
[2] = target: RPA (Homo sapiens, UniProt P27694); test: Helix destabilization assay; type: biochemical; settings: EMSA, dsDNA probe, 200 µM of each compound
Chain of RPA (P27694 whole entry): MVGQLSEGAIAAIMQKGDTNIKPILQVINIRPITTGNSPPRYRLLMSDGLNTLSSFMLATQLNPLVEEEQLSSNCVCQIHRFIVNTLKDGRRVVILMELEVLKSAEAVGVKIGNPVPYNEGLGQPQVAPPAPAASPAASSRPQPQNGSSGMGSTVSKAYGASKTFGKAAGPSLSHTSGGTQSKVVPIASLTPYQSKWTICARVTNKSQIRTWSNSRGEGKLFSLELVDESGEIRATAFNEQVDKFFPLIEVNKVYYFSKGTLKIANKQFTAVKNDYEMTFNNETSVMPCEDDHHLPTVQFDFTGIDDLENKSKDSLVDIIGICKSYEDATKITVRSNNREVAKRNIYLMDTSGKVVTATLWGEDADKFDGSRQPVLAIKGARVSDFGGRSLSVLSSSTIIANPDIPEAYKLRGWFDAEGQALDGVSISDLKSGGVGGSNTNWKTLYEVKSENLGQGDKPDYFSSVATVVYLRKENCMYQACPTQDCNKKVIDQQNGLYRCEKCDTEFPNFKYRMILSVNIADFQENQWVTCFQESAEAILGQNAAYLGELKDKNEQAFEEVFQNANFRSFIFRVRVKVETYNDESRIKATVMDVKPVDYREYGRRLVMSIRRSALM
Chain of RPA (P15927 whole entry partner): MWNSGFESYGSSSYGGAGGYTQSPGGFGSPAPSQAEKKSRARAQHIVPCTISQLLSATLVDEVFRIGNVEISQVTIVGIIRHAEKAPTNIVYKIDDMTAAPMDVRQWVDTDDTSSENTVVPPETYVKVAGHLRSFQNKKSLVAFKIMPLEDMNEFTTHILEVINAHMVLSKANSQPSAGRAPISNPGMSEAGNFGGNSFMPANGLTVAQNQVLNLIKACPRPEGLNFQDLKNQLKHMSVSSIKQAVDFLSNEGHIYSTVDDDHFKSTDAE
Chain of RPA (P35244 whole entry partner): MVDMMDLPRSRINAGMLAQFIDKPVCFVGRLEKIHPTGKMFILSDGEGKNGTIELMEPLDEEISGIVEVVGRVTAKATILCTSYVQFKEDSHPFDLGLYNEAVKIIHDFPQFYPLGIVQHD

Chain of DBD-F^MBP (P27694 1-168): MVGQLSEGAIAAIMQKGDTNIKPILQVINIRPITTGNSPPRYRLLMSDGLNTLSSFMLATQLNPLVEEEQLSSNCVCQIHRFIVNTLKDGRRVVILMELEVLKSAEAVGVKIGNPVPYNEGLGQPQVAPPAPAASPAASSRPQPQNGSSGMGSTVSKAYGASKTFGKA

competition with X-rhodamine-labelled p53TAD2 for binding to DBD-F^MBP [1]	inhibition of helix destabilization by RPA [2]	Structure (SMILES)
no evidence of binding	no effect	O=C(O)C1CCC(C(=O)O)CC1 (stereo not shown) [1,4-cyclohexanedicarboxylic acid]
no evidence of binding	no effect	O=C(O)CCC(=O)O [succinic acid]
